Experimental findings from patent US20090110708A1, “ANIMATE TISSUE ANTISEPSIS” (priority 2007, published 2009) are described below.

The experiment has as its system Staphylococcus aureus. Nature of the experiment: Kill of Staphylococcus aureus inoculated onto inanimate porcine intestine by forced evaporation of the applied solution. Type of experiment: cell-based.

With `OO` [H2O2, hydrogen peroxide], the “death of the organisms (kill by enhanced evaporation)” value (initial H2O2 concentrations 4%-10% (vol.), 16 mg/cm^2 on tissue, blown air 50° C., 5.0 m/sec) is “significantly killed”. The log reduction reads like this: (no alcohol, 3 minute dry time) 2.21; (no alcohol, 3.5 minute dry time) 2.68; (no alcohol, 4 minute dry time) 1.79.
Consider “ethyl alcohol [10% alcohol (EtOH), reference compound]”, for which the log reduction result (no peroxide, 10% alcohol (EtOH)) is on record as “no measurable log reduction”.
